Reference: patent publication US20030008922A1, “Multiple drug resistance reversal agent” (priority 2002, published 2003)

What was measured:
[1] = molecular target: T1, Pgp (Homo sapiens, UniProt P08183); test: Pgp ATPase activity (ATP-hydrolysis); assay type: biochemical; details: values >1 represent stimulation, values <1 represent inhibition
Protocol: (§1) Pgp ATPase stimulation activity was determined along with displacement of the prazosin analog, iodoarylazidoprazosin (^125IAAP). Ambudkar, S. V. Methods Enzymol 1998, 292: 504-514; Dey, S. et al. Methods Enzymol. 1998, 292: 318.
(§2) The effect of the homodimers of the present invention on ATPase activity and IAAP binding to Pgp are very potent. ATPase stimulation reaches a maximum at low concentration (1 μM) and steadily drops off as the concentration is increased (not shown). In contrast with the other homodimers, the X=5 compound slowly achieves maximum stimulation up to 50 μM and this level is maintained as the concentration increases. The other dimers are similar to the monomeric compounds where maximum stimulation is achieved and rapidly drops off as concentration increases. More surprising are the Pgp displacement of photoaffinity labeled substrate analog by the heterodimers. For example, with the heterodimer where X=12 is shown to bind tightly at 1.7 μM.

[2] = molecular target: T1, Pgp; test: Inhibition of 125IAAP binding to Pgp (photoaffinity substrate displacement)
Protocol: as §1, §2

T1 sequence (P08183 whole entry): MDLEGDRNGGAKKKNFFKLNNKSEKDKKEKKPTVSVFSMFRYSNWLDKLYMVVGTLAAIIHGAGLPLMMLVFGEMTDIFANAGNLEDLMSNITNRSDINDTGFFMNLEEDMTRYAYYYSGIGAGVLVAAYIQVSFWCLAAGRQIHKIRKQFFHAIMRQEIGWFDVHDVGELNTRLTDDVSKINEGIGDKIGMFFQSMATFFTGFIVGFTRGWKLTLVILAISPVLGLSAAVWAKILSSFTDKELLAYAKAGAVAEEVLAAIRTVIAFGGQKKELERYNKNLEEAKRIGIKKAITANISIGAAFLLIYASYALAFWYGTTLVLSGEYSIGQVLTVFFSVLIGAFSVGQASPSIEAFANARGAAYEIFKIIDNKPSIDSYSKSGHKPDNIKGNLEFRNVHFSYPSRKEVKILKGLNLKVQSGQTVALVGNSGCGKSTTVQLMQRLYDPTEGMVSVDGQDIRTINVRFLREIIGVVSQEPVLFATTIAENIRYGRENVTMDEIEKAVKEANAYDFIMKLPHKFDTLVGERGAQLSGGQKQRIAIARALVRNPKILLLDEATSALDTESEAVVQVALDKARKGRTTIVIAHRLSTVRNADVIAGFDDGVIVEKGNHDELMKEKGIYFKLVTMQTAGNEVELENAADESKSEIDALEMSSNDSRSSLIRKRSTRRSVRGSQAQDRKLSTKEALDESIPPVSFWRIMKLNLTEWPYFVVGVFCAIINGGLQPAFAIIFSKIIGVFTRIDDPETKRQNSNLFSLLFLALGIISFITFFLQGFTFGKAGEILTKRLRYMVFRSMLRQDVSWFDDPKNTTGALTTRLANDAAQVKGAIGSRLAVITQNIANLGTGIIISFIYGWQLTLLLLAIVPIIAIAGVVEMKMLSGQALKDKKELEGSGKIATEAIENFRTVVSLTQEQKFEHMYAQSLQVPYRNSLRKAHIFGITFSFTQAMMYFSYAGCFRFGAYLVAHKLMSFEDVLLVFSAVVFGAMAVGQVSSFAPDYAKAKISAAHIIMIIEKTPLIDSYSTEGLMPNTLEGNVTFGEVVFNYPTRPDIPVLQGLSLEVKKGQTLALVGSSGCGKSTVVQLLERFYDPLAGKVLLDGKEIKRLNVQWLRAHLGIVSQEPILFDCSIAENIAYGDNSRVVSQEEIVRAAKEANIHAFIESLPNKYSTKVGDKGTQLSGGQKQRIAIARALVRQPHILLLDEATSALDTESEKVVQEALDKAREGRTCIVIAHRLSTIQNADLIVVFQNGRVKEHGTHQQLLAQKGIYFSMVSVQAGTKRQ

**Q.** With `CC(=CCCC#CC=CC(C)C(O)C(C)=CCCc1ccc2ccccc2c1)C(=O)NCCOCCOCCOCCOCCOCCO` (centres unmarked) [compound 16] as the compound, how does the ATPase activity [1] read?
**A.** 0.34 fraction of control

**Q.** And the Ki [2]?
**A.** 7.6 µM
